Data on eleven compounds can be found in patent publication US20220340597A1, “HEXAHYDRO-1H-PYRAZINO[1,2-A]PYRAZINE COMPOUNDS FOR THE TREATMENT OF AUTOIMMUNE DISEASE” (Hoffmann-La Roche Inc., priority 2019, published 2022).

Bounds are passed on as bounds.

The target in one series is T1, human TLR7 (Homo sapiens, UniProt Q9NYK1).
T1 construct: host or cells: HEK293 (HEK-Blue hTLR7)
T1 sequence (Q9NYK1 27-1049): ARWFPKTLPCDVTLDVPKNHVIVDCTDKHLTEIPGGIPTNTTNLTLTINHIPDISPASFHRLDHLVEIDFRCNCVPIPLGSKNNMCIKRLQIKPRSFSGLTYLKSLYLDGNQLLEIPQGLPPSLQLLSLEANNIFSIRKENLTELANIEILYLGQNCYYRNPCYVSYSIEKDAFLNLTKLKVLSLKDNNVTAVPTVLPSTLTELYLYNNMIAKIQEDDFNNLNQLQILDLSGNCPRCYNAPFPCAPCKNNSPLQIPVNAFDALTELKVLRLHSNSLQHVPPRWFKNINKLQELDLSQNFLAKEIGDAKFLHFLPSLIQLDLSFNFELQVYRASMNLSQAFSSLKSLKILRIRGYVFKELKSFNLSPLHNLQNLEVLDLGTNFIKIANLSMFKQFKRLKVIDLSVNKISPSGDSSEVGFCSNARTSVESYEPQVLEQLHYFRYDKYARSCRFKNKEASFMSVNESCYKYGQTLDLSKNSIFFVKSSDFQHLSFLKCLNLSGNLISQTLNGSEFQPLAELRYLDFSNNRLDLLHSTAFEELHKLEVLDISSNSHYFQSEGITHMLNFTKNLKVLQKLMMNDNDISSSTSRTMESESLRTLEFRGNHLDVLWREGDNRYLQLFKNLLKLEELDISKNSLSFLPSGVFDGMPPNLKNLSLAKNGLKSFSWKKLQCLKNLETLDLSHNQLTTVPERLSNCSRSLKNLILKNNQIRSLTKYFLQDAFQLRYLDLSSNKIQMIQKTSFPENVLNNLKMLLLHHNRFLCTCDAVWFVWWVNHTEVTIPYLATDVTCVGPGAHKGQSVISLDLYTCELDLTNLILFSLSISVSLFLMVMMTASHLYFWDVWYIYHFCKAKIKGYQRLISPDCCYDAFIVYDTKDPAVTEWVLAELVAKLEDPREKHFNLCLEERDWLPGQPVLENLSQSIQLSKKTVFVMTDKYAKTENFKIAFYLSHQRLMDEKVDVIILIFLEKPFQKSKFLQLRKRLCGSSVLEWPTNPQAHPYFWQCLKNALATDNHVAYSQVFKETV
Briefly: HEK293-Blue-hTLR-7 cells assay. The series is classed as cell-based. The note with it: HEK293-Blue-hTLR7 cells, R848 stimulation, 20 hrs, SEAP reporter; read-out: HEK/hTLR7 IC50.

The target in the next series is T2, hERG channel (Homo sapiens, UniProt Q12809).
T2 construct: expressed in transfected cells; host or cells: CHO (Chinese hamster ovary), CHOhERG
T2 sequence (Q12809 whole entry): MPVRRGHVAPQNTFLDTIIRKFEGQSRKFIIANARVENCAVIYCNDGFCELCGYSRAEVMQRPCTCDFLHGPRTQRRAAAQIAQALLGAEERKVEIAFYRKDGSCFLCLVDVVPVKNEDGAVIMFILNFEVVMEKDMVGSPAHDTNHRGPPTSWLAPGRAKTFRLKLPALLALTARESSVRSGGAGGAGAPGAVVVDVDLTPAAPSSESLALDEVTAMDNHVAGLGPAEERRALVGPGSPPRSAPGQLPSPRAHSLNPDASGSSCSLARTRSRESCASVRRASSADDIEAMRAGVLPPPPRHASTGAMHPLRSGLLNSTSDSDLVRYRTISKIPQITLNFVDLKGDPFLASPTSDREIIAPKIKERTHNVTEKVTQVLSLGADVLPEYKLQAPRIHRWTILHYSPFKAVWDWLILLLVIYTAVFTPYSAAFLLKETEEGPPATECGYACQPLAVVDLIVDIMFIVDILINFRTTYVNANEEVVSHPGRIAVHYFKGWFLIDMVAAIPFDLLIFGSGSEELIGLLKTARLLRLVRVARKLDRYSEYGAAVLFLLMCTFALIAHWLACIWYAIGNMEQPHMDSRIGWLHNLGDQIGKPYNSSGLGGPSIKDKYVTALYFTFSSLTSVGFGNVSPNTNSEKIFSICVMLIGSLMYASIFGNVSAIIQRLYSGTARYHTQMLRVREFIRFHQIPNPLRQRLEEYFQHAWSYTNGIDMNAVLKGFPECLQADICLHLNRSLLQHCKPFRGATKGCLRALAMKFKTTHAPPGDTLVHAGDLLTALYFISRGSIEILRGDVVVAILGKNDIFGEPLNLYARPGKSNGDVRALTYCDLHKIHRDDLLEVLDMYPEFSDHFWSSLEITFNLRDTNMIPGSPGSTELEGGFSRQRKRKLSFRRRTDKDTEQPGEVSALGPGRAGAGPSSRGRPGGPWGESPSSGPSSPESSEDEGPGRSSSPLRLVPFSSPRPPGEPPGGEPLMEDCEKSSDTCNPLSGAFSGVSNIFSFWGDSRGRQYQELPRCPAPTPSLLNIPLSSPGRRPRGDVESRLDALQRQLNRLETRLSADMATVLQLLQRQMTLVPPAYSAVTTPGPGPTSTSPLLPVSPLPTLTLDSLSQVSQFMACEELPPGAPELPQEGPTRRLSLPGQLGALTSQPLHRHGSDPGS
Briefly: hERG channel inhibition assay (patch-clamp, CHOhERG cells). The note with it: for IC50 / IC20: CHOhERG cells, whole-cell patch-clamp; for IC20: human, CHO cells stably expressing hERG (CHOhERG); for hERG IC20/TLR7 IC50 / hERG IC20/TLR8 IC50 / hERG IC20/TLR9 IC50: safety ratio. The series is classed as cell-based. As to the method:
hERG Channel Inhibition Assay:
The hERG K^+ channels were cloned in humans and stably expressed in a CHO (Chinese hamster ovary) cell line. CHOhERG cells were used for patch-clamp (voltage-clamp, whole-cell) experiments. Cells were stimulated by a voltage pattern to activate hERG channels and conduct IKhERG currents (rapid delayed outward rectifier potassium current of the hERG channel). After the cells were stabilized for a few minutes, the amplitude and kinetics of IKhERG were recorded at a stimulation frequency of 0.1 Hz (6 bpm). Thereafter, the test compound was added to the preparation at increasing concentrations. For each concentration, an attempt was made to reach a steady-state effect, usually, this was achieved within 3-10 min at which time the next highest concentration was applied. The amplitude and kinetics of IKhERG are recorded in each concentration of the drug which were compared to the control values (taken as 100%). (references: Redfern W S, Carlsson L, Davis A S, Lynch W G, MacKenzie I, Palethorpe S, Siegl P K, Strang I, Sullivan A T, Wallis R, Camm A J, Hammond T G. 2003; Relationships between preclinical cardiac electrophysiology, clinical QT interval prolongation and torsade de pointes for a broad range of drugs: evidence for a provisional safety margin in drug development. Cardiovasc. Res. 58:32-45, Sanguinetti M C, Tristani-Firouzi M. 2006; hERG potassium channels and cardiac arrhythmia. Nature 440:463-469, Webster R, Leishman D, Walker D. 2002; Towards a drug concentration effect relationship for QT prolongation and torsades de pointes. Curr. Opin. Drug Discov. Devel. 5:116-26).
The calculation of hERG IC20/TLR7/8/9 IC50 below serves as early selectivity index to assess hERG liability.
For orientation: hERG is a cardiac potassium channel; its block is linked to QT prolongation.

Regarding `C[C@@H]1CN(c2ccc(C#N)c3ncccc23)C[C@@H]2CN(c3cc(N4CCNCC4)ccn3)CCN21` [Example 34, 5-[(4R,9aR)-4-methyl-8-(4-piperazin-1-yl-2-pyridyl)-3,4,6,7,9,9a-hexahydro-1H-pyrazino[1,2-a]pyrazin-2-yl]quinoline-8-carbonitrile], the IC50 on human TLR7 turned out to be 0.02 µM. Moreover, at hERG channel, the IC50 was > 10 µM, the IC20 was determined as 4.74 µM, the “hERG IC20/TLR7 IC50” value was found to be 237 and the “hERG IC20/TLR8 IC50” value turned out to be 339. For the same compound, at hERG channel, the “hERG IC20/TLR9 IC50” value was 113.

Regarding `[2H]c1ccc2c(N3C[C@@H]4CN(c5ccc(N6C[C@@H](N)[C@H](OC)C6)nc5)CCN4[C@@H](C)C3)ccc(C#N)c2n1` [Example 115, 5-[(4S,9aR)-8-[6-[(3R,4R)-3-amino-4-methoxy-pyrrolidin-1-yl]-3-pyridyl]-4-methyl-3,4,6,7,9,9a-hexahydro-1H-pyrazino[1,2-a]pyrazin-2-yl]-2-deuterio-quinoline-8-carbonitrile], at human TLR7, the IC50 was 0.01 µM. At hERG channel, the IC50 was > 20 µM, the IC20 was > 10 µM, the “hERG IC20/TLR7 IC50” value is recorded as >1000 and the “hERG IC20/TLR8 IC50” value is recorded as >588. Besides, at hERG channel, the “hERG IC20/TLR9 IC50” value is on record as >71.

For the compound `CO[C@@H]1CN(c2nc(C)cc(N3CCN4[C@@H](C3)CN(c3ccc(C#N)c5ncccc35)C[C@H]4C)n2)C[C@H]1N` [Example 45, 5-[(4R,9aR)-8-[2-[(3R,4R)-3-amino-4-methoxy-pyrrolidin-1-yl]-6-methyl-pyrimidin-4-yl]-4-methyl-3,4,6,7,9,9a-hexahydro-1H-pyrazino[1,2-a]pyrazin-2-yl]quinoline-8-carbonitrile], on human TLR7, the IC50 was found to be 0.018 µM. At hERG channel, the IC50 is > 20 µM, the IC20 is > 10 µM, the “hERG IC20/TLR7 IC50” value is given as >556 and the “hERG IC20/TLR8 IC50” value is >357. In addition, the “hERG IC20/TLR9 IC50” value at hERG channel is reported as >124.

As for `[2H]c1ccc2c(N3C[C@@H]4CN(c5ncc(N6CC(C)(N)C6)cc5C)CCN4[C@@H](C)C3)ccc(C#N)c2n1` [Example 118, 5-[(4S,9aR)-8-[5-(3-amino-3-methyl-azetidin-1-yl)-3-methyl-2-pyridyl]-4-methyl-3,4,6,7,9,9a-hexahydro-1H-pyrazino[1,2-a]pyrazin-2-yl]-2-deuterio-quinoline-8-carbonitrile], the IC50 on human TLR7 is 0.004 µM. For the same compound, on hERG channel, the IC50 was > 20 µM, the IC20 amounted to 7.66 µM, the “hERG IC20/TLR7 IC50” value was found to be 1914 and the “hERG IC20/TLR8 IC50” value is 1276. Further, the “hERG IC20/TLR9 IC50” value on hERG channel turned out to be 51.

As for `C[C@@H]1CN(c2ccc(C#N)c3ncccc23)C[C@@H]2CN(CCc3ccc(N4CC5(CN(C)C5)C4)nc3)CCN21` [Example 22, 5-[(4R,9aS)-4-methyl-8-[2-[6-(6-methyl-2,6-diazaspiro[3.3]heptan-2-yl)-3-pyridyl]ethyl]-3,4,6,7,9,9a-hexahydro-1H-pyrazino[1,2-a]pyrazin-2-yl]quinoline-8-carbonitrile], the IC50 on human TLR7 was 0.026 µM. At hERG channel, the IC50 was > 20 µM, the IC20 was > 10 µM, the “hERG IC20/TLR7 IC50” value was >385 and the “hERG IC20/TLR8 IC50” value is listed as >172. The “hERG IC20/TLR9 IC50” value at hERG channel is >213.

As for `Cc1cc(N2CCN3[C@@H](C2)CN(c2ccc(C#N)c4ncccc24)C[C@H]3C)nc(N2CC(C)(N)C2)n1` [Example 55, 5-[(4R,9aR)-8-[2-(3-amino-3-methyl-azetidin-1-yl)-6-methyl-pyrimidin-4-yl]-4-methyl-3,4,6,7,9,9a-hexahydro-1H-pyrazino[1,2-a]pyrazin-2-yl]quinoline-8-carbonitrile], the IC50 on human TLR7 is 0.015 µM. Besides, on hERG channel, the IC50 was > 20 µM, the IC20 was > 10 µM, the “hERG IC20/TLR7 IC50” value was >680 and the “hERG IC20/TLR8 IC50” value is >249. For the same compound, the “hERG IC20/TLR9 IC50” value at hERG channel was >209.

With `CO[C@@H]1CN(c2ccc(CCN3CCN4[C@@H](C3)CN(c3ccc(C#N)c5ncccc35)C[C@H]4C)cn2)C[C@H]1N` [Example 12, 5-[(4R,9aS)-8-[2-[6-[(3R,4R)-3-amino-4-methoxy-pyrrolidin-1-yl]-3-pyridyl]ethyl]-4-methyl-3,4,6,7,9,9a-hexahydro-1H-pyrazino[1,2-a]pyrazin-2-yl]quinoline-8-carbonitrile], the IC50 at human TLR7 is 0.012 µM. In addition, on hERG channel, the IC50 was > 20 µM, the IC20 was > 10 µM, the “hERG IC20/TLR7 IC50” value is recorded as >833 and the “hERG IC20/TLR8 IC50” value is reported as >714. Besides, on hERG channel, the “hERG IC20/TLR9 IC50” value is listed as >213.

Consider `CO[C@H]1CN(c2ccc(CCN3CCN4[C@@H](C3)CN(c3ccc(C#N)c5ncccc35)C[C@H]4C)cn2)C[C@@H]1N` [Example 25, 5-[(4R,9aS)-8-[2-[6-[(3S,4S)-3-amino-4-methoxy-pyrrolidin-1-yl]-3-pyridyl]ethyl]-4-methyl-3,4,6,7,9,9a-hexahydro-1H-pyrazino[1,2-a]pyrazin-2-yl]quinoline-8-carbonitrile], for which, at human TLR7, the IC50 amounted to 0.013 µM. On hERG channel, the IC50 was > 20 µM, the IC20 was > 10 µM, the “hERG IC20/TLR7 IC50” value is >769 and the “hERG IC20/TLR8 IC50” value is listed as >400. On hERG channel, the “hERG IC20/TLR9 IC50” value is >156.

For `[2H]c1ccc2c(N3C[C@@H]4CN(CCc5ccc(N6C[C@H]7NCCO[C@@H]7C6)nc5)CCN4[C@H](C)C3)ccc(C#N)c2n1` [Example 77, 5-[(4R,9aS)-8-[2-[6-[(4aR,7aR)-3,4,4a,5,7,7a-hexahydro-2H-pyrrolo[3,4-b][1,4]oxazin-6-yl]-3-pyridyl]ethyl]-4-methyl-3,4,6,7,9,9a-hexahydro-1H-pyrazino[1,2-a]pyrazin-2-yl]-2-deuterio-quinoline-8-carbonitrile], on human TLR7, the IC50 was 0.021 µM. Further, at hERG channel, the IC50 is > 20 µM, the IC20 was > 10 µM, the “hERG IC20/TLR7 IC50” value is >476 and the “hERG IC20/TLR8 IC50” value is recorded as >416. Further, the “hERG IC20/TLR9 IC50” value on hERG channel is >227.

For `Cc1cc(N2CC3(CN(C)C3)C2)cnc1N1CCN2[C@@H](C1)CN(c1cc(=O)n(C)c3ncccc13)C[C@@H]2C` [Example 113, 4-[(4S,9aR)-4-methyl-8-[3-methyl-5-(6-methyl-2,6-diazaspiro[3.3]heptan-2-yl)-2-pyridyl]-3,4,6,7,9,9a-hexahydro-1H-pyrazino[1,2-a]pyrazin-2-yl]-1-methyl-1,8-naphthyridin-2-one], the IC50 on human TLR7 was 0.006 µM. Further, on hERG channel, the IC50 is > 20 µM, the IC20 was > 10 µM, the “hERG IC20/TLR7 IC50” value is given as >1666 and the “hERG IC20/TLR8 IC50” value is >70. In addition, at hERG channel, the “hERG IC20/TLR9 IC50” value was >79.

Take `C[C@@H]1CN(c2ccc(C#N)n3ncc(F)c23)C[C@@H]2CN(Cc3ccc4c(c3)CNCC4)CCN21` [Example 69, 4-[(4R,9aS)-4-methyl-8-(1,2,3,4-tetrahydroisoquinolin-7-ylmethyl)-3,4,6,7,9,9a-hexahydro-1H-pyrazino[1,2-a]pyrazin-2-yl]-3-fluoro-pyrazolo[1,5-a]pyridine-7-carbonitrile]: the IC50 at human TLR7 is 0.066 µM. At hERG channel, the IC50 is > 20 µM, the IC20 is > 10 µM, the “hERG IC20/TLR7 IC50” value was >152 and the “hERG IC20/TLR8 IC50” value is given as >192. Moreover, the “hERG IC20/TLR9 IC50” value at hERG channel is >70.

Usually IC20 stands for the concentration at which the effect reaches the 20% level. A lower IC20 goes with greater potency.
